# Laboratory results published in patent US20240034761A1, “REGENERATION OF MAMMALIAN TISSUES USING SYNTHETIC IMMODULINS” (priority 2022, published 2024).
# Marks after values point to notes of the source that are not given here. Peptide text beside a SMILES is read from it.
# Tests used:
# [1] = Plate binding of FITC-labelled hyaluronic acid to immobilised biotinylated peptides; conditions: 400 ng peptide/well, 1 ug FITC-HMW-HA, PBS; normalized to immX3 peptide binding = 100
# Procedure: (§1) Effects of pH, PIP2 and size classes: Streptavidin-coated 96-well plates (G-Biosciences, St. Louis, MO) were pre-loaded with biotinylated peptides [see Example 1] at 400 ng/well, at room temperature for 60 minutes. The plate was washed with PBS buffer and then 1 ug FITC-labelled heparin or hyaluronic acid (FITC-HMW-HA) in 100 uL PBS buffer was added per well (all tests done in quadruplicate). Incubation proceeded for 90 minutes at room temperature, followed by two PBS washes. The plate was read in a standard laboratory fluorometer (488/525 nm exitation/[…]) and the counts normalized for immX3 peptide binding=100. Values statistically above background are shown in bold font. **p<0.05 versus immX3AVD.
# [2] = biological target: T1, recombinant CD44 protein (Homo sapiens, UniProt P16070); assay: Third binding experiment: CD44 binding to peptide/holotransferrin/hyaluronan complexes; conditions: for CD44 immunoreactivity, 1.5 ug/w HMW-HA: immX3AVD + 1.5 ug HMW-HA set to 100 AU; for CD44 immunoreactivity, CONTROL: no hyaluronan, 100 ng/well CD44
# T1 construct: purchased Abcam, Waltham, MA
# Procedure: as §1
# A third binding experiment was done as described above using immX3AVD peptide with or without 10 ug/well holotransferrin (holoTf) plus either 10 ug/well LMW-HA or either 1.5 ug or 10 ug HMW-HA/well in the binding step, followed by a buffer wash step. 100 ng/well pure recombinant CD44 protein (Abcam, Waltham, MA) was then added to the indicated wells, incubated for 60 minutes at room temperature and the plate was washed with buffer. Anti-CD44 monoclonal antibody (Abcam, Waltham, MA) was added towells at 1:200, incubated for 60 minutes at room temperature and the plate was then washed and developed by secondary antibody and TMB detection as recommended by the manufacturer. CD44 immunoreactivity was expressed in arbitrary immunoreactivity units (AU), with **p<0.05 versus immx3AVD+1.5 ug HMW-HA control, which was set to=100 AU.
# [3] = Plate binding of FITC-labelled heparin to immobilised biotinylated peptides; conditions: 400 ng peptide/well, 1 ug FITC-heparin, PBS; normalized to immX3 peptide binding = 100
# Procedure: as §1
# T1 sequence (P16070 21-742, species assumed): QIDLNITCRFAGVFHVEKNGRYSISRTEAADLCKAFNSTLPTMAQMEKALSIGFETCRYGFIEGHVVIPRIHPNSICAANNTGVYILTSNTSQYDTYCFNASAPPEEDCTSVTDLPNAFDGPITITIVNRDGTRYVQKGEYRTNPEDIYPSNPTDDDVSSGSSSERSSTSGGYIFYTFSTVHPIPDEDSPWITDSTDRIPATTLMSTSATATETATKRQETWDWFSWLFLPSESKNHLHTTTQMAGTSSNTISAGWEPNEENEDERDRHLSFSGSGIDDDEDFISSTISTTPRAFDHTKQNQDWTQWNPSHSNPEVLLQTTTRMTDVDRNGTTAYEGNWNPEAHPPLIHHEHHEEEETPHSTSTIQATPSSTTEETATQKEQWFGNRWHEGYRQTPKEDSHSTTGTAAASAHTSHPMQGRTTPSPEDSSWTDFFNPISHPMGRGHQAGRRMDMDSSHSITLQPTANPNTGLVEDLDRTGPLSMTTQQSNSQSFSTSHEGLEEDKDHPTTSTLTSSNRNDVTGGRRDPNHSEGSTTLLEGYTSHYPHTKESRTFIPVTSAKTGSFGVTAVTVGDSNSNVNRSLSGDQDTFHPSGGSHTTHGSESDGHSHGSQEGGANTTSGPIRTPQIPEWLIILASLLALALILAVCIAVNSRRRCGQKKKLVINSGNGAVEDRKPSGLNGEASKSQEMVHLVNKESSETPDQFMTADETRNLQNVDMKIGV
smiles,measurement,setting,value
CC(C)[C@H](NC(=O)[C@H](C)NC(=O)[C@H](Cc1c[nH]c2ccccc12)NC(=O)[C@H](CS)NC(=O)[C@H](Cc1ccccc1)NC(=O)CNC(=O)[C@H](CCCNC(=N)N)NC(=O)[C@H](CCCCN)NC(=O)[C@H](CCCNC(=N)N)NC(=O)CNC(=O)[C@H](CCCCN)NC(=O)[C@H](CO)NC(=O)[C@@H]1CCCN1C(=O)[C@H](CCCNC(=N)N)NC(=O)[C@H](CS)NC(=O)[C@H](CCC(N)=O)NC(=O)[C@H](CCCCN)NC(=O)[C@H](CCCCN)NC(=O)[C@H](CCCCN)NC(=O)[C@H](Cc1ccc(O)cc1)NC(=O)[C@H](Cc1ccccc1)NC(=O)CNC(=O)[C@H](CCCCN)NC(=O)[C@@H](N)CCCCN)C(=O)N[C@@H](CC(=O)O)C(=O)O [immX3AVD] (H-KKGFYKKKQCRPSKGRKRGFCWAVD-OH),Hyaluronate binding (fluorescence counts),[1],100.0 ± 22.8
same,"CD44 immunoreactivity, 10 ug/w HMW-HA",[2]; pH 5.2,105.1 ± 11.4 AU
same,"CD44 immunoreactivity, 10 ug/w LMW-HA",[2]; pH 5.2,102.6 ± 17.9 AU
same,"CD44 immunoreactivity, 1.5 ug/w HMW-HA",[2]; pH 5.2,100.0 ± 4.6 AU
same,"CD44 immunoreactivity, CONTROL",[2]; pH 5.2,13.2 ± 22.0** AU
same,"CD44 immunoreactivity, 10 ug/w HMW-HA",[2]; pH 7.4,101.1 ± 4.9 AU
same,"CD44 immunoreactivity, 10 ug/w LMW-HA",[2]; pH 7.4,103.0 ± 19.4 AU
same,"CD44 immunoreactivity, 1.5 ug/w HMW-HA",[2]; pH 7.4,100.0 ± 15.5 AU
same,"CD44 immunoreactivity, CONTROL",[2]; pH 7.4,19.6 ± 13.0** AU
same,Heparin binding (fluorescence counts),[3],100.0 ± 4.7
